This note sets out measurements from patent US11142515B2, “Pyrazolyl-ureas as kinase inhibitors” (RESPIVERT LIMITED, priority 2014, dated 2021).

Structures are written as SMILES. Bounds are passed on as bounds.

Test [1] addresses T1, p38 MAPKα isoform (MAPK14) (Homo sapiens, UniProt Q16539).
T1 construct: purchased Life Technologies
Put plainly: p38 MAPKα enzyme inhibition (Z-LYTE FRET). In kind it is biochemical. The note with it: Table 2B, unit inferred; read-out: p38 MAPKα (Enzyme Profile). The procedure: The enzyme inhibitory activities of compounds disclosed herein were determined by FRET using synthetic peptides labelled with both donor and acceptor fluorophores (Z-LYTE, Life Technologies, Paisley, UK).
The inhibitory activities of compounds of the invention against the p38 MAPKα isoform (MAPK14: Life Technologies), were evaluated indirectly by determining the level of activation/phosphorylation of the target peptide of the p38 MAPKα down-stream molecule, MAPKAP-K2. The enzyme (40 ng/mL, 2.5 μL) was incubated with the test compound (2.5 μL of either 40 μg/mL, 12 μg/mL, 4 μg/mL, 1.2 μg/mL, 0.4 μg/mL, 0.12 μg/mL, 0.04 μg/mL, 0.012 μg/mL, 0.004 μg/mL or 0.0012 μg/mL) for 2 h at RT. […] Development reagent (protease, 5 μL) was added for 1 h prior to detection in a fluorescence microplate reader (EnVision, Perkin Elmer, Waltham, Mass., USA).
In all cases, the site-specific protease cleaves non-phosphorylated peptide only and eliminates the FRET signal. Phosphorylation levels of each reaction were calculated using the ratio of coumarin emission (donor) over fluorescein emission (acceptor), for which low ratios indicate high phosphorylation and high ratios indicate low phosphorylation levels.

A further test concerns the target T2, p38MAPKγ (MAPK12) (Homo sapiens, UniProt P53778).
T2 construct: purchased Life Technologies
T2 sequence (P53778 1-367): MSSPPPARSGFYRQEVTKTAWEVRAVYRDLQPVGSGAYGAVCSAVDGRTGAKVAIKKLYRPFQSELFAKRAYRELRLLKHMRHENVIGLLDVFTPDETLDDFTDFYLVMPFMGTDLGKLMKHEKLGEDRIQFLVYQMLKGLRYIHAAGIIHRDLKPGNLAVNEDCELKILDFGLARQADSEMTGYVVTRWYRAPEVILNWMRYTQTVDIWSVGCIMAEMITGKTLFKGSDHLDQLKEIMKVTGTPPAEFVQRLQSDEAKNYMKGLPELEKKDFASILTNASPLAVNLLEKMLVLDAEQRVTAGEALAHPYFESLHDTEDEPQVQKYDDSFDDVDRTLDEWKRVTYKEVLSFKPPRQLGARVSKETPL
Put plainly: p38 MAPKγ enzyme inhibition (Z-LYTE FRET). It counts as biochemical. The note with it: Table 2B, unit inferred; read-out: p38 MAPKγ (Enzyme Profile). In short, it runs like this:
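Enzyme (added at 800 ng/mL) was preincubated 2 h at RT with compound (solutions of 40 to 0.0012 μg/mL), then FRET peptide (8 μM) and ATP (400 μM), both as added, were reacted 1 h at RT. Protease development followed for 1 h; phosphorylation was read as the coumarin/fluorescein emission ratio.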

T1 sequence (Q16539 whole entry, canonical isoform): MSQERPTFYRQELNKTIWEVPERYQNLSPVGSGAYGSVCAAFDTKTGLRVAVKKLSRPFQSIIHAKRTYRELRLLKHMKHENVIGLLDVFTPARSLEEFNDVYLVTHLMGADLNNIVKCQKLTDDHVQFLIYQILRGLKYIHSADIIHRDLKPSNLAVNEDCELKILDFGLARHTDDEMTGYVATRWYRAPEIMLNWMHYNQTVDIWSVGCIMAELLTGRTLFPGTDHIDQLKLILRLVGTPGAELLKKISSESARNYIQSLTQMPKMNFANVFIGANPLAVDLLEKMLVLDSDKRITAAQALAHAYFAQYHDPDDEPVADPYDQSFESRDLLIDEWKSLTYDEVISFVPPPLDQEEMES

In the case of `Cc1cc(-n2nc(C(C)(C)C)cc2NC(=O)Nc2ccc(OCc3ccnc(Nc4cncc(N(C)C)n4)c3)c3ccccc23)cs1` [Example 112, 1-(3-(tert-butyl)-1-(5-methylthiophen-3-yl)-1H-pyrazol-5-yl)-3-(4-((2-((6-(dimethylamino)pyrazin-2-yl)amino)pyridin-4-yl)methoxy)naphthalen-1-yl) urea], the IC50 came to 0.043 µM in test [1] and 0.277 µM on p38MAPKγ (MAPK12).

As for `COc1cncc(Nc2cc(COc3ccc(NC(=O)Nc4cc(C(C)(C)C)nn4-c4csc(C)c4)c4ccccc34)ccn2)n1` [Example 113, 1-(3-(tert-butyl)-1-(5-methylthiophen-3-yl)-1H-pyrazol-5-yl)-3-(4-((2-((6-methoxypyrazin-2-yl)amino)pyridin-4-yl)methoxy)naphthalen-1-yl) urea], the IC50 in test [1] worked out at 0.037 µM; at p38MAPKγ (MAPK12), 3.2 µM.

`CN(C)c1cncc(Nc2cc(COc3ccc(NC(=O)Nc4cc(C(C)(C)C)nn4-c4ccc(CO)cc4)c4ccccc34)ccn2)n1` [Example 114, 1-(3-(tert-butyl)-1-(4-(hydroxymethyl)phenyl)-1H-pyrazol-5-yl)-3-(4-((2-((6-(dimethylamino)pyrazin-2-yl)amino)pyridin-4-yl)methoxy)naphthaien-1-yl)urea]: the IC50 in test [1] came out at 0.002 µM; on p38MAPKγ (MAPK12), 0.026 µM.

For `CN(C)c1cncc(Nc2cc(COc3ccc(NC(=O)Nc4cc(C(C)(C)C)nn4-c4ccc(O)cc4)c4ccccc34)ccn2)n1` [Example 115, 1-(3-(tert-butyl)-1-(4-hydroxyphenyl)-1H-pyrazol-5-yl)-3-(4-((2-((6-(dimethyl-amino)pyrazin-2-yl)amino)pyridin-4-yl)methoxy)naphthalen-1-yl)urea], the IC50 in test [1] came to 0.0075 µM; at p38MAPKγ (MAPK12), 0.725 µM.

In the case of `CCOc1cncc(Nc2cc(COc3ccc(NC(=O)Nc4cc(C(C)(C)C)nn4-c4ccc(C)cc4)c4ccccc34)ccn2)n1` [Example 116, 1-(3-(tert-butyl)-1-(p-tolyl)-1H-pyrazol-5-yl)-3-(4-((2-((6-ethoxypyrazin-2-yl)amino)pyridin-4-yl)methoxy)naphthalen-1-yl)urea], the results for the IC50 (in test [1]; at p38MAPKγ (MAPK12)) were 0.023 µM and 2.82 µM, respectively.

For the molecule `Cc1ccc(-n2nc(C(C)(C)C)cc2NC(=O)Nc2ccc(OCc3ccnc(Nc4cncc(NC(C)C)n4)c3)c3ccccc23)cc1` [Example 117, 1-(3-(tert-butyl)-1-(p-tolyl)-1H-pyrazol-5-yl)-3-(4-((2-((6-(isopropylamino)pyrazin-2-yl)amino)pyridin-4-yl)methoxy)naphthalen-1-yl) urea], the IC50 in test [1] was 0.016 µM; at p38MAPKγ (MAPK12) it was 0.15 µM.

For `Cc1ccc(-n2nc(C(C)(C)C)cc2NC(=O)Nc2ccc(OCc3ccnc(Nc4cncc(N5CCOCC5)n4)c3)c3ccccc23)cc1` [Example 118, 1-(3-(tert-butyl)-1-(p-tolyl)-1H-pyrazol-5-yl)-3-(4-((2-((6-morpholinopyrazin-2-yl)amino)pyridin-4-yl)methoxy)naphthalen-1-yl) urea], the values for the IC50 (in test [1]; at p38MAPKγ (MAPK12)) were 0.0055 µM and 0.115 µM, respectively.

With `Cc1ccc(-n2nc(C(C)(C)C)cc2NC(=O)Nc2ccc(OCc3ccnc(Nc4cncc(NC5CC5)n4)c3)c3ccccc23)cc1` [Example 119, 1-(3-(tert-butyl)-1-(p-tolyl)-1H-pyrazol-5-yl)-3-(4-((2-((6-(cyclopropylamino)pyrazin-2-yl)amino)pyridin-4-yl)methoxy)naphthalen-1-yl)urea], the IC50 in test [1] was 0.013 µM; at p38MAPKγ (MAPK12), 0.175 µM.

With `CNc1cncc(Nc2cc(COc3ccc(NC(=O)Nc4cc(C(C)(C)C)nn4-c4ccc(C)cc4)c4ccccc34)ccn2)n1` [Example 120, 1-(3-(tert-butyl)-1-(p-tolyl)-1H-pyrazol-5-yl)-3-(4-((2-((6-(methylamino)pyrazin-2-yl)amino)pyridin-4-yl)methoxy)naphthalen-1-yl) urea], the IC50 came out at 0.0048 µM in test [1] and 0.173 µM at p38MAPKγ (MAPK12).

Take `Cc1ccc(-n2nc(C(C)(C)C)cc2NC(=O)Nc2ccc(OCc3ccnc(Nc4cncc(OCCO)n4)c3)c3ccccc23)cc1` [Example 121, 1-(3-(tert-butyl)-1-(p-tolyl)-1H-pyrazol-5-yl)-3-(4-((2-((6-(2-hydroxyethoxy)pyrazin-2-yl)amino)pyridin-4-yl)methoxy)naphthalen-1-yl)urea]: the IC50 in test [1] was 0.038 µM; at p38MAPKγ (MAPK12), 0.079 µM.

As to `Cc1ccc(-n2nc(C(C)(C)C)cc2NC(=O)Nc2ccc(OCc3ccnc(Nc4cncc(OCC(C)C)n4)c3)c3ccccc23)cc1` [Example 122, 1-(3-(tert-butyl)-1-(p-tolyl)-1H-pyrazol-5-yl)-3-(4-((2-((6-isobutoxypyrazin-2-yl)amino)pyridin-4-yl)methoxy)naphthalen-1-yl) urea], the IC50 in test [1] is 2.78 µM; at p38MAPKγ (MAPK12), 8.74 µM.

Take `Cc1ccc(-n2nc(C(C)(C)C)cc2NC(=O)Nc2ccc(OCc3ccnc(Nc4cncc(N5CC(O)C5)n4)c3)c3ccccc23)cc1` [Example 123, 1-(3-(tert-butyl)-1-(p-tolyl)-1H-pyrazol-5-yl)-3-(4-((2-((6-(3-hydroxyazetidin-1-yl)pyrazin-2-yl)amino)pyridin-4-yl)methoxy)naphthalen-1-yl)urea]: the IC50 in test [1] worked out at 0.06 µM; at p38MAPKγ (MAPK12) it was 0.171 µM.

For `Cc1ccc(-n2nc(C(C)(C)C)cc2NC(=O)Nc2ccc(OCc3ccnc(Nc4cnc(C(=O)NCCOC(C)C)cn4)c3)c3ccccc23)cc1` [Example 124, 5-((4-(((4-(3-(3-(tert-butyl)-1-(p-tolyl)-1H-pyrazol-5-yl)ureido)naphthalen-1-yl)oxy)methyl)pyridin-2-yl)amino)-N-(2-isopropoxy-ethyl)pyrazine-2-carboxamide], the IC50 was 0.288 µM in test [1] and above 13.7 µM at p38MAPKγ (MAPK12).

`Cc1ccc(-n2nc(C(C)(C)C)cc2NC(=O)Nc2ccc(OCc3ccnc(Nc4cnc(C(=O)NCCOC(C)(C)C)cn4)c3)c3ccccc23)cc1` [Example 125, N-(2-(tert-butoxy)ethyl)-5-((4-(((4-(3-(3-(tert-butyl)-1-(p-tolyl)-1H-pyrazol-5-yl)ureido)naphthalen-1-yl)oxy)methyl)pyridin-2-yl)amino)pyrazine-2-carboxamide]: the IC50 was 0.302 µM in test [1] and above 13.5 µM at p38MAPKγ (MAPK12).

Regarding `Cc1ccc(-n2nc(C(C)(C)C)cc2NC(=O)Nc2ccc(OCc3ccnc(Nc4cnc(C(=O)N5CC[C@H](O)C5)cn4)c3)c3ccccc23)cc1` [Example 126, (S)-1-(3-(tert-butyl)-1-(p-tolyl)-1H-pyrazol-5-yl)-3-(4-((2-((5-(3-hydroxypyrrolidine-1-carbonyl)pyrazin-2-yl)amino)pyridin-4-yl)methoxy)naphthalen-1-yl)urea], the IC50 in test [1] came to 0.047 µM; on p38MAPKγ (MAPK12), 0.187 µM.

Consider `Cc1ccc(-n2nc(C(C)(C)C)cc2NC(=O)Nc2ccc(OCc3ccnc(Nc4cnc(C(=O)N5CCC(O)CC5)cn4)c3)c3ccccc23)cc1` [Example 127, 1-(3-(tert-butyl)-1-(p-tolyl)-1H-pyrazol-5-yl)-3-(4-((2-((5-(4-hydroxypiperidine-1-carbonyl)pyrazin-2-yl)amino)pyridin-4-yl)methoxy)naphthalen-1-yl) urea], for which the IC50 in test [1] is 0.0068 µM; on p38MAPKγ (MAPK12), 0.093 µM.

Consider `Cc1ccc(-n2nc(C(C)(C)C)cc2NC(=O)Nc2ccc(OCc3ccnc(Nc4cnc(C(=O)N5CCC5)cn4)c3)c3ccccc23)cc1` [Example 128, 1-(4-((2-((5-(azetidine-1-carbonyl)pyrazin-2-yl)amino)pyridin-4-yl)methoxy)naphthalen-1-yl)-3-(3-(tert-butyl)-1-(p-tolyl)-1H-pyrazol-5-yl)urea], for which the values for the IC50 (in test [1]; on p38MAPKγ (MAPK12)) were 0.055 µM and above 14.7 µM, respectively.

Consider `CCc1ncc(Nc2cc(COc3ccc(NC(=O)Nc4cc(C(C)(C)C)nn4-c4ccc(C)cc4)c4ccccc34)ccn2)nc1C` [Example 129, 1-(3-(tert-butyl)-1-(p-tolyl)-1H-pyrazol-5-yl)-3-(4-((2-((5-ethyl-6-methylpyrazin-2-yl)amino)pyridin-4-yl)methoxy)naphthalen-1-yl) urea], for which the IC50 in test [1] is 0.04 µM; at p38MAPKγ (MAPK12), above 15.6 µM.

On to `Cc1ccc(-n2nc(C(C)(C)C)cc2NC(=O)Nc2ccc(OCc3ccnc(Nc4cnc5c(n4)CCC5)c3)c3ccccc23)cc1` [Example 130, 1-(3-(tert-butyl)-1-(p-tolyl)-1H-pyrazol-5-yl)-3-(4-((2-((6,7-dihydro-5H-cyclopenta [b]pyrazin-2-yl)amino)pyridin-4-yl)methoxy)naphthalen-1-yl)urea], for which the IC50 in test [1] was determined as 0.031 µM; on p38MAPKγ (MAPK12), 2.79 µM.
